The record followed here is ChEMBL document CHEMBL4007422 (J Med Chem, 2017).

The target in this assay is 5-hydroxytryptamine receptor 6 (Homo sapiens, UniProt P50406). Put plainly: Displacement of [3H]-LSD from recombinant human 5-HT6 receptor expressed in HEK293 cells after 60 mins. It counts as cell-based. In general terms: Loss of bound radioactivity is the signal in a displacement assay; it reports binding, not function.

The structures appear in SMILES notation.

Sequence of 5-hydroxytryptamine receptor 6 (P50406 whole entry): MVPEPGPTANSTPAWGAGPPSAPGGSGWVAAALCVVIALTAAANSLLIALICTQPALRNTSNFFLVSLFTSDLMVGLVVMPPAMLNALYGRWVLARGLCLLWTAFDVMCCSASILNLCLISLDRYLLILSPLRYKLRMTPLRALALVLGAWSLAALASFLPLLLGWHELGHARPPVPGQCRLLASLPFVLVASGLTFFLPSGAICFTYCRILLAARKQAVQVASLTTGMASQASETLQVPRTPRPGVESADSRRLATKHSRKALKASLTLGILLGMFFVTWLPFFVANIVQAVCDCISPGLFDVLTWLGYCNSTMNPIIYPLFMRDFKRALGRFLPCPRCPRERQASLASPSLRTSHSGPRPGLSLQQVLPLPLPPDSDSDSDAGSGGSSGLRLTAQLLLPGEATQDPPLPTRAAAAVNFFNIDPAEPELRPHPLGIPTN

Take `COc1ccc2c(c1)c(CN1CCNCC1)cn2S(=O)(=O)c1ccc(C(C)C)cc1`: the Ki (commonly the dissociation constant of the complex between target and ligand, obtained from inhibition or displacement) turned out to be 0.0057 µM.

Regarding `COc1cccc2c1c(CN1CCN(C)CC1)cn2S(=O)(=O)c1ccccc1Br`, the inhibitory constant (Ki) turned out to be 0.0143 µM.

As for `CN1CCN(Cc2cn(S(=O)(=O)c3ccc(OC(F)(F)F)cc3)c3ccccc23)CC1`, the Ki was determined as 0.15 µM. The same measure for `COc1ccc2c(CN3CCN(C)CC3)cn(S(=O)(=O)c3ccc(F)cc3)c2c1`: 0.239 µM. As for `CN1CCN(Cc2cn(S(=O)(=O)c3ccc(Br)cc3)c3ccc(OCC(F)(F)F)cc23)CC1`, the Ki came out at 0.0963 µM.

Regarding `CN1CCN(Cc2cn(S(=O)(=O)c3ccccc3)c3ncccc23)CC1`, the Ki worked out at 0.277 µM. The same measure for `CC(C)c1ccc(S(=O)(=O)n2cc(CN3CCN(C)CC3)c3cc(O)ccc32)cc1`: 0.05 µM; for `CN1CCN(Cc2cn(S(=O)(=O)c3ccc(F)cc3)c3ccc(Cl)cc23)CC1`: 0.0175 µM; for `O=C(c1ccccc1)N1CCN(Cc2cn(S(=O)(=O)c3ccccc3Br)c3ccccc23)CC1`: 0.365 µM. On to `CN1CCN(Cc2cn(S(=O)(=O)c3c(Cl)cccc3Cl)c3ccccc23)CC1`, for which the Ki worked out at 0.1 µM. Turning to `CN1CCN(Cc2cn(C(=O)c3ccccc3Br)c3ccc(F)cc23)CC1`, the Ki worked out at 0.326 µM. On to `CC(=O)N1CCN(Cc2cn(S(=O)(=O)c3ccccc3Br)c3ccccc23)CC1`, for which the Ki worked out at 0.385 µM. The same measure for `CN1CCN(CCc2cn(S(=O)(=O)c3cccc(Br)c3)c3ccc(Br)cc23)CC1`: 0.289 µM. For `CN1CCN(Cc2cn(S(=O)(=O)c3ccc(C#N)cc3)c3ccccc23)CC1`, the Ki stood at 0.0905 µM. As for `CN1CCN(Cc2cn(S(=O)(=O)c3ccc(F)cc3)c3ccc(Br)cc23)CC1`, the figure is 0.017 µM; as for `CN1CCN(Cc2cn(S(=O)(=O)c3ccc(Br)cc3)c3cc(Cl)ccc23)CC1`, 0.0597 µM; as for `O=S(=O)(c1ccccc1Br)n1cc(CN2CCNCC2)c2ncccc21`, 0.095 µM. As for `COc1cccc2c1c(CN1CCN(C)CC1)cn2S(=O)(=O)c1ccc(F)cc1`, the Ki turned out to be 0.0184 µM. As for `CN1CCN(Cc2cn(S(=O)(=O)c3ccccc3Br)c3ccc([N+](=O)[O-])cc23)CC1`, the Ki worked out at 0.2 µM. Regarding `COc1ccc2c(CN3CCN(C)CC3)cn(S(=O)(=O)c3ccc(C(C)C)cc3)c2c1`, the Ki came to 0.0361 µM. The same measure for `CN1CCN(Cc2cn(S(=O)(=O)c3c(F)cccc3F)c3ccccc23)CC1`: 0.064 µM; for `O=S(=O)(c1ccccc1)n1cc(CN2CCNCC2)c2ccccc21`: 0.0075 µM; for `CN1CCN(Cc2cn(S(=O)(=O)c3ccc(F)cc3F)c3ccccc23)CC1`: 0.03 µM.

Take `CN1CCN(Cc2cn(S(=O)(=O)c3ccccc3Br)c3cccc(Cl)c23)CC1`: the inhibitory constant (Ki) came to 0.0235 µM. The same measure for `Cc1c(CN2CCN(C)CC2)c2ccccc2n1S(=O)(=O)c1ccc(F)cc1`: 0.0556 µM; for `CN1CCN(Cc2cn(S(=O)(=O)c3ccc(Br)cc3)c3ccccc23)CC1`: 0.00213 µM. As for `CN1CCN(CCc2cn(S(=O)(=O)c3ccccc3Br)c3ccc(Br)cc23)CC1`, the figure is 0.398 µM; as for `COc1ccc2c(c1)c(CN1CCN(CCF)CC1)cn2S(=O)(=O)c1ccccc1Br`, 0.348 µM.

For `CN1CCN(Cc2cn(S(=O)(=O)c3ccc(F)c(F)c3)c3ccccc23)CC1`, the Ki stood at 0.119 µM. With `CN1CCN(Cc2cn(S(=O)(=O)c3ccccc3Br)c3ccccc23)CC1`, the Ki stood at 0.0102 µM. For `CN1CCN(Cc2cn(S(=O)(=O)c3cccc(Br)c3)c3ccccc23)CC1`, the Ki worked out at 0.019 µM. Regarding `CN1CCN(Cc2cn(S(=O)(=O)c3ccccc3Br)c3ccc(O)cc23)CC1`, the Ki came to 0.0187 µM. The same measure for `COc1ccc(OC)c(S(=O)(=O)n2cc(CN3CCN(C)CC3)c3ccccc32)c1`: 0.091 µM. As for `CC(C)c1ccc(S(=O)(=O)n2cc(CN3CCN(C)CC3)c3c(Cl)cccc32)cc1`, the figure is 0.0092 µM; as for `CN1CCN(Cc2cn(S(=O)(=O)c3cccc(Cl)c3)c3ccccc23)CC1`, 0.0163 µM. Consider `CN1CCN(Cc2cn(S(=O)(=O)c3ccccc3)c3cc(Cl)ccc23)CC1`, for which the Ki is 0.0357 µM. Turning to `O=S(=O)(c1ccccc1Br)n1cc(CN2CCNCC2)c2ccccc21`, the Ki came to 0.0045 µM. As for `COc1ccc2c(c1)c(CN1CCNCC1)cn2S(=O)(=O)c1ccc(F)cc1`, the figure is 0.0069 µM. For the compound `CCN1CCN(Cc2cn(S(=O)(=O)c3ccc(C(C)C)cc3)c3ccc(OC)cc23)CC1`, the Ki is 0.0017 µM.

As for `CN1CCN(Cc2cn(S(=O)(=O)c3ccc(F)cc3)c3ccc(O)cc23)CC1`, the Ki is 0.0349 µM. As to `CN1CCN(Cc2cn(S(=O)(=O)c3ccc(F)cc3)c3cccc(Cl)c23)CC1`, the Ki was 0.0312 µM. As for `CC(C)c1ccc(S(=O)(=O)n2cc(CN3CCN(C)CC3)c3ccccc32)cc1`, the figure is 0.006 µM; as for `COc1ccc2c(c1)c(CN1CCN(C)CC1)c(Cl)n2S(=O)(=O)c1ccc(C(C)C)cc1`, 0.0296 µM. In the case of `CN1CCN(Cc2cn(S(=O)(=O)c3ccccc3F)c3ccccc23)CC1`, the Ki was found to be 0.0078 µM. The same measure for `CN1CCN(Cc2cn(S(=O)(=O)c3ccc(F)cc3Cl)c3ccccc23)CC1`: 0.029 µM; for `CN1CCN(Cc2cn(S(=O)(=O)c3ccc(Br)cc3)c3ccc(F)cc23)CC1`: 0.0092 µM.

For `CN1CCN(Cc2cn(S(=O)(=O)c3cccc4ccccc34)c3ccccc23)CC1`, the Ki came out at 0.0115 µM.

On to `CN1CCN(Cc2cn(S(=O)(=O)c3ccc(Cl)cc3Cl)c3ccccc23)CC1`, for which the Ki amounted to 0.0282 µM. As for `CN1CCN(Cc2cn(Cc3ccccc3Br)c3ccccc23)CC1`, the figure is 0.312 µM; as for `CN1CCN(Cc2cn(S(=O)(=O)c3ccccc3Br)c3ccc(F)cc23)CC1`, 0.012 µM; as for `CSc1ccc2c(c1)c(CN1CCN(C)CC1)cn2S(=O)(=O)c1ccccc1Br`, 0.194 µM. As for `CCN1CCN(Cc2cn(S(=O)(=O)c3ccc(F)cc3)c3ccc(OC)cc23)CC1`, the figure is 0.02 µM; as for `CC(C)Oc1ccc2c(c1)c(CN1CCN(C)CC1)cn2S(=O)(=O)c1ccccc1Br`, 0.0363 µM; as for `COc1ccc2c(c1)c(CN1CCN(C)CC1)nn2S(=O)(=O)c1ccccc1Br`, 0.348 µM.

Consider `O=S(=O)(c1ccccc1Br)n1cc(CN2CCN(Cc3ccccc3)CC2)c2ccccc21`, for which the Ki was 0.133 µM.

As for `CN1CCN(Cc2cn(S(=O)(=O)c3cccc(F)c3)c3ccccc23)CC1`, the Ki came to 0.058 µM. Consider `CCN1CCN(Cc2cn(S(=O)(=O)c3ccccc3Br)c3ccc(OC)cc23)CC1`, for which the Ki was found to be 0.0067 µM. As to `Cc1ccc(S(=O)(=O)n2cc(CN3CCN(C)CC3)c3ccccc32)cc1`, the Ki came out at 0.0096 µM. The same measure for `Cc1ccc(C)c(S(=O)(=O)n2cc(CN3CCN(C)CC3)c3ccccc32)c1`: 0.064 µM.

Consider `CN1CCN(Cc2c[nH]c3ccccc23)CC1`, for which the inhibitory constant (Ki) was determined as 0.482 µM. The same measure for `CC(C)c1ccc(S(=O)(=O)n2cc(CN3CCN(C)CC3)c3cc(Br)ccc32)cc1`: 0.0276 µM.
